According to patent US11331327B2, “Antibacterial use of halogenated salicylanilides” (UNION therapeutics A/S, priority 2014, dated 2022):
Where “and” joins values, the source holds several entries; their conditions need not be identical. Identical values can stand only once. Like-named read-outs stand apart in the source and are kept apart here. Marks after values point to notes of the source that are not given here.

Assays:
[1] = cited from earlier work; for LD50 rats p.o: Table 3
[2] = system: MRSA 01, MRSA 15, MRSA 16; assay: Mutational frequency evaluation, Example 1; type: cell-based, Staphylococcus aureus; conditions: for Resistance mutation rate at MIC × 1: tested against one strain: MRSA 01; for mutational frequency at MIC×1: text summary of Table 4
Protocol: Adequate dilutions were plated on plates without the compound.
Viable cell growth was enumerated after 48 hours of incubation at 37° C.
Ten replicates were carried out for each strain and fusidic acid, mupirocin and retapamulin were used as controls for the MRSA 01 strain.

S. pyogenes strains = assay: Minimum Inhibitory Concentration (MIC) assay, Example 1, S. pyogenes strains; type: cell-based, Streptococcus pyogenes; conditions: Streptococcus pyogenes, read-out: Mic100 S. pyogenes
Protocol: (§1) Strains were conserved in Luria Bertani (LB) Broth (S. aureus) or Brain Heart Infusion (BHI) (S. pyogenes) supplemented with glycerol 15% (v/v) at −80° C., and reactivated by isolation on LB (S. aureus) or BHI (S. pyogenes) agar plates. Strains were cultivated in Mueller Hinton (MH) Broth-cation adjusted (S. aureus) supplemented with lysed horse blood 2.5% (v/v) (S. pyogenes). All strains were cultivated at 37° C., aerobically for S. aureus strains.
(§2) Bacterial cultures were stopped in their exponential growth phase and plates were inoculated with the approximate concentration of 10^3 cells per well. Plates were incubated at 37° C. for 18 hours (S. aureus) or 24 hours (S. pyogenes). Optical density at a wavelength of 600 nm was measured at the end of the incubation time. […] Experiments were performed at least as triplicate biological replicates with all strains.

S. aureus strains = assay: Minimum Inhibitory Concentration (MIC) assay, Example 1, S. aureus strains; type: cell-based; conditions: Staphylococcus aureus, read-out: Mic100 S. aureus
Protocol: as §1, §2

[3] = in vivo; cited from earlier work
[4] = cited from earlier work
[5] = tested against one strain: S. pyogenes 01

| Structure (SMILES) | LD50 rats p.o [1] [mg/kg] | LD50 ([1]; rats, p.o.) | Resistance mutation rate at MIC × 1 [2] | mutational frequency at MIC×1 [2] | MIC (S. pyogenes strains; [5]) | MIC (S. aureus strains; S. aureus strains) | safety margin after oral administration [3] | MIC (S. aureus strains; tested against one strain: MRSA 01) | LD50 median ([1]; rats, p.o., median of studies) [mg/kg] | MIC (S. pyogenes strains) | MIC (S. aureus strains; MRSA) | LD50 mice p.o ([4]; Table 3) [mg/kg] | LD50 ([4]; mice, p.o.) [mg/kg] |
| --- | --- | --- | --- | --- | --- | --- | --- | --- | --- | --- | --- | --- | --- |
| Cc1cc(C(C#N)c2ccc(Cl)cc2)c(Cl)cc1NC(=O)c1cc(I)cc(I)c1O (stereo not drawn) [Closantel, N-[5-chloro-4-[(4-chlorophenyl)cyanomethyl]-2-methylphenyl]-2-hydroxy-3,5-diiodobenzamide] | 300 | 262 to 342 mg/kg | = 2 × 10^−8* | 2×10^−8 | 12.8 µg/mL and 19 µM | ≤ 1.7 µg/mL and ≤ 2.5 µM |  |  |  |  |  |  |  |
| O=C(Nc1cc(Cl)cc(Cl)c1O)c1c(O)c(Cl)cc(Cl)c1Cl [Oxyclozanide, 3,3′,5,5′,6-pentachloro-2′-hydroxysalicylanilide] | 980 to 3500 | 980 to 3519 mg/kg |  | 1×10^−7 | 6.4 µg/mL and 15.9 µM |  | Low safety margin | 1.6 µg/mL and 4 µM |  |  |  |  |  |
| O=C(Nc1ccc(Oc2ccc(Cl)cc2)c(Cl)c1)c1cc(I)cc(I)c1O [Rafoxanide, 3′-chloro-4′-(p-chlorophenoxy)-3,5-diiodosalicylanilide] | 1500 | 980->2000 mg/kg | = 5 × 10^−9* | 5×10^−9 |  |  |  |  | > 1490 | 6.4 µg/mL and 10 µM | 0.8 µg/mL and 1.25 µM | 270 | 232 to 300 |
